The source of these data is patent US20230183237A1, “COMPETITIVE AND NONCOMPETITIVE INHIBITORS OF THE MUSCARINIC ACETYLCHOLINE RECEPTOR M5” (Vanderbilt University, priority 2020, published 2023).

This assay addresses T1, hM5 (Homo sapiens, UniProt P08912).
T1 construct: expressed in transfected cells
T1 sequence (P08912 1-532): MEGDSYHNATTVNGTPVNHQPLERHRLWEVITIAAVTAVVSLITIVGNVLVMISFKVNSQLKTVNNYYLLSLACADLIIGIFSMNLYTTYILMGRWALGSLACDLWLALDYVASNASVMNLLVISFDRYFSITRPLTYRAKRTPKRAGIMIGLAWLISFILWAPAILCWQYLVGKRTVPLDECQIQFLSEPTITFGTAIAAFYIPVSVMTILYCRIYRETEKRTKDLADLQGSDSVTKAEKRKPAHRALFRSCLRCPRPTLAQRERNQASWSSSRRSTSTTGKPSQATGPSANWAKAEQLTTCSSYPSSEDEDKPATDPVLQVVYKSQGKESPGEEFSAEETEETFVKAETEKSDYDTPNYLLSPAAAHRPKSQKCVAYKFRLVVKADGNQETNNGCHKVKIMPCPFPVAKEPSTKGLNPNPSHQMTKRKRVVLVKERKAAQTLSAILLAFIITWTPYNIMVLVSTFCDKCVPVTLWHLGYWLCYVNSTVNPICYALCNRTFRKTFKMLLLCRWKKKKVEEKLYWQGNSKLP
Kind of assay: Calcium mobilization concentration-response (IC50 vs EC80 acetylcholine), CHO hM5. It counts as cell-based. The conditions noted are these: CELL LINE hM5, read-out: IC50. As for the experimental part:
Initial, single point (10 μM) compound characterization was performed in stable Chinese Hamster Ovary (CHO) cell lines constitutively expressing human M5 receptors. These were plated at 15,000 cells per 20 μL per well in Greiner 384-well black-walled, TC-treated, clear-bottomed plates (Fisher) in Ham's F12 medium supplemented with 10% FBS and 20 mM HEPES. Cells were incubated overnight at 37° C. under 5% CO2. The following day, medium was exchanged with assay buffer (Hank's Balanced Salt Solution supplemented with 20 mM HEPES and 2.5 mM Probenecid, pH 7.4) leaving 20 μL of assay buffer in each well. […] The cells were then incubated 50 minutes at 37° C. under 5% CO2. The assay buffer plus dye was then exchanged with fresh assay buffer leaving a volume of 20 μL in each well. Test compounds were diluted into assay buffer to a 2X (20 μM) concentration in 0.2% dimethylsulfoxide (DMSO) in columns 3-22 with matching DMSO concentration in columns 1, 2, 23, and […]; compounds were added to the assay for a final concentration of 10 μM and a final DMSO concentration of 0.1%.
Either an FDSS (Hamamatsu) or Panoptic (WaveFront Biosciences) kinetic imaging plate reader was used for assay execution and measurement of calcium flux. After establishing baseline fluorescence, test compounds (20 μL) were added to the cells using the reader's integrated pipettor and allowed to equilibrate for 140 seconds before addition of the […] concentration of acetylcholine (10 μL) along with vehicle in selected DMSO-only wells in the outer two columns . […] The raw fluorescence data from each well was normalized to the corresponding initial fluorescence reading (static ratio). The maximum fluorescence value following each addition was determined and the minimum value within that same timeframe was subtracted for each well then normalized to the average of the ECffiax maximum-minimum response, providing a % AChmax value for each addition for each well. The single point values represent mean values determined within the ECsu addition timeframe obtained from at least three independent determinations performed in triplicate or greater (error bars represent +/−SEM) unless otherwise specified.
CHO cells stably expressing hM1, hM2/Gqi5, hM3, hM4/Gqi5, hM5, rM1/Gqi5, rM3, rM4/Gqi5, or rM5 were plated in the manner described above. […] FDSS protocols were carried out as described above; the static ratio was calculated and the minimum response subtracted from the maximum response within the timeframe of each addition. This max-min response was then normalized to the maximum acetylcholine response. Calculation of IC50 was performed using the percent maximum acetylcholine response for the EC80 addition through the Vortex and Studies modules of the Dotmatics data management software. Results are stored in the Dotrnatics database and an audit trail of any changes to their analysis is generated. Data shown represent mean values obtained from at least three independent determinations performed in triplicate or greater (error bars represent±SEM) unless otherwise specified.

The mark [1] stands for this setting: calcium mobilization, EC80 acetylcholine addition.

Read-outs that look alike come from different tables or passages of the source.

Usually IC50 stands for the concentration needed to halve the response being measured.

`Cc1nc(C)c(S(=O)(=O)N2CCC(c3cn4ncnc4cc3F)CC2)s1` [Compound 235, 5-((4-(7-fluoro-[1,2,4]triazolo[1,5-a]pyridin-6-yl)piperidin-1-yl)sulfonyl)-2,4-dimethylthiazole]: the IC50 under setting [1] is more than 10000 nM.

Regarding `Cc1ncc(S(=O)(=O)N2CCC(c3cn4ncnc4cc3C(F)F)CC2)o1` [Compound 497, 5-((4-(7-(difluoromethyl)-[1,2,4]triazolo[1,5-a]pyridin-6-yl)piperidin-1-yl)sulfonyl)-2-methyloxazole], the IC50 (vs EC80 acetylcholine) worked out at 141 nM.

With `Cc1cc2ncnn2cc1C1CCN(S(=O)(=O)c2cnn3c2CCCC3)CC1` [Compound 238, 7-methyl-6-(1-((4,5,6,7-tetrahydropyrazolo[1,5-a]pyridin-3-yl)sulfonyl)piperidin-4-yl)-[1,2,4]triazolo[1,5-a]pyridine], under setting [1], the IC50 is 6 nM.

`Cc1cc(S(=O)(=O)N2CCC(c3nn4ccnc4cc3C)CC2)cnc1Cl` [Compound 54, 6-(1-((6-chloro-5-methylpyridin-3-yl)sulfonyl)piperidin-4-yl)-7-methylimidazo[1,2-b]pyridazine]: the IC50 under setting [1] was more than 10000 nM.

For `Cn1ncc(S(=O)(=O)N2CCC(c3cn4ncnc4cc3F)CC2)c1C#N` [Compound 402, 4-((4-(7-fluoro-[1,2,4]triazolo[1,5-a]pyridin-6-yl)piperidin-1-yl)sulfonyl)-1-methyl-1H-pyrazole-5-carbonitrile], the IC50 (vs EC80 acetylcholine) was 85 nM.

For the molecule `[2H]C1([2H])Oc2ccc(S(=O)(=O)N3CCC(c4cn5nc(C)nc5cc4C)CC3)cc2C1([2H])[2H]` [Compound 91, 6-(1-((2,3-dihydrobenzofuran-5-yl-2,2,3,3-d4)sulfonyl)piperidin-4-yl)-2,7-dimethyl-[1,2,4]triazolo[1,5-a]pyridine], the IC50 under setting [1] was more than 10000 nM.

As to `Cc1cc2ncnn2cc1C1CCN(S(=O)(=O)c2cc(C(F)(F)F)nn2C)CC1` [Compound 146, 7-methyl-6-(1-((1-methyl-3-(trifluoromethyl)-1H-pyrazol-5-yl)sulfonyl)piperidin-4-yl)-[1,2,4]triazolo[1,5-a]pyridine], the IC50 under setting [1] was more than 10000 nM.

On to `Cc1cc(C#N)cnc1C1CCN(S(=O)(=O)c2cnn(C)c2C)CC1` [Compound 217, 6-(1-((1,5-Dimethyl-1H-pyrazol-4-yl)sulfonyl)piperidin-4-yl)-5-methylnicotinonitrile], for which the half-maximal inhibitory concentration (IC50) under setting [1] was more than 10000 nM.

Consider `Cc1c(C2CCN(S(=O)(=O)c3cnc(Cl)s3)CC2)cn2ncnc2c1F` [Compound 534, 2-chloro-5-((4-(8-fluoro-7-methyl-[1,2,4]triazolo[1,5-a]pyridin-6-yl)piperidin-1-yl)sulfonyl)thiazole], for which, for the setting “vs EC80 acetylcholine”, the half-inhibitory concentration (IC50) was 1650 nM.

For the molecule `Cc1ccncc1C1CCN(S(=O)(=O)c2cnn3c2OCCC3)CC1` [Compound 386, 3-((4-(4-methylpyridin-3-yl)piperidin-1-yl)sulfonyl)-6,7-dihydro-5H7-pyrazolo[5,1-b][1,3]oxazine], the IC50 under setting [1] is 4620 nM.

For the molecule `Cc1cc2ncnn2cc1C1CCN(S(=O)(=O)c2cnn(C(F)F)c2C)CC1` [Compound 151, 6-(1-((1-(difluoromethyl)-5-methyl-1H-pyrazol-4-yl)sulfonyl)piperidin-4-yl)-7-methyl-[1,2,4]triazolo[1,5-a]pyridine], under setting [1], the IC50 stood at 62 nM.

Regarding `Cc1cc2ncnn2nc1C1CCN(S(=O)(=O)c2cnc(C)n2C)CC1` [Compound 216, 6-(1-((1,2-dimethyl-1H-imidazol-5-yl)sulfonyl)piperidin-4-yl)-7-methyl-[1,2,4]triazolo[1,5-b]pyridazine], under setting [1], the IC50 was 689 nM.

Consider `Cc1nc(C)c(S(=O)(=O)N2CCC(c3nn4ccnc4cc3C)CC2)s1` [Compound 249, 2,4-dimethyl-5-((4-(7-methylimidazo[1,2-b]pyridazin-6-yl)piperidin-1-yl)sulfonyl)thiazole], for which the IC50 under setting [1] is 2600 nM.

Take `Cc1cc2ncnn2cc1C1CCN(S(=O)(=O)c2cc3c(cc2F)OCC3)C1` (stereo not shown) [Compound 127, 6-(1-((6-fluoro-2,3-dihydrobenzofuran-5-yl)sulfonyl)pyrrolidin-3-yl)-7-methyl-[1,2,4]triazolo[1,5-a]pyridine]: the IC50 under setting [1] was more than 10000 nM.

As for `O=S(=O)(c1cnc2sccn12)N1CCC(c2cn3ncnc3cc2C(F)F)CC1` [Compound 515, 5-((4-(7-(difluoromethyl)-[1,2,4]triazolo[1,5-a]pyridin-6-yl)piperidin-1-yl)sulfonyl)imidazo[2,1-b]thiazole], the IC50 (vs EC80 acetylcholine) came to 34 nM.

For the molecule `Cn1ncc(S(=O)(=O)N2CCC(c3c4c(nn3C)CCCC4)CC2)c1Cl` [Compound 592, 3-(1-((5-chloro-1-methyl-1H-pyrazol-4-yl)sulfonyl)piperidin-4-yl)-2-methyl-4,5,6,7-tetrahydro-2H-indazole], for the setting “vs EC80 acetylcholine”, the half-inhibitory concentration (IC50) was determined as 325 nM.

In the case of `Cn1ccc(-c2cc3ncnn3cc2C2CCN(S(=O)(=O)c3cnn4c3CCCC4)CC2)n1` [Compound 333, 7-(1-methyl-1H-pyrazol-3yl)-6-(1-((4,5,6,7-tetrahydropyrazolo[1,5-a]pyridin-3-yl)sulfonyl)piperidin-4-yl)-[1,2,4]triazolo[1,5-a]pyridine], the IC50 under setting [1] is more than 10000 nM.

On to `Cn1ncc(S(=O)(=O)N2CCC(c3c(C(F)(F)F)nc4n3CCCC4)CC2)c1Cl` [Compound 555, 3-(1-((5-chloro-1-methyl-1H-pyrazol-4-yl)sulfonyl)piperidin-4-yl)-2-(trifluoromethyl)-5,6,7,8-tetrahydroimidazo[1,2-a]pyridine], for which, where the note is “vs EC80 acetylcholine”, the concentration for half-maximal inhibition (IC50) is more than 10000 nM.

Regarding `Cc1cc2nccn2nc1N1CCN(S(=O)(=O)c2cnn3c2CCC3)CC1` [Compound 435, 6-(4-((5,6-dihydro-4H-pyrrolo[1,2-b]pyrazol-3-yl)sulfonyl)piperazin-1-yl)-7-methylimidazo[1,2-b]pyridazine], the concentration for half-maximal inhibition (IC50) (vs EC80 acetylcholine) came to 22 nM.

As for `Cc1cc(S(=O)(=O)N2CCC(c3cn4ncnc4cc3C)CC2)sn1` [Compound 491, 3-methyl-5-((4-(7-methyl-[1,2,4]triazolo[1,5-a]pyridin-6-yl)piperidin-1-yl)sulfonyl)isothiazole], under “vs EC80 acetylcholine”, the IC50 is 6 nM.

As for `O=S(=O)(c1cnc(Cl)s1)N1CCC(c2cn3ncnc3cc2Cl)CC1` [Compound 532, 2-chloro-5-((4-(7-chloro-[1,2,4]triazoto[1,5-a]pyridin-6-yl)piperidin-1-yl)sulfonyl)thiazole], the IC50 (vs EC80 acetylcholine) came to 172 nM.

For `Cc1cc2nncn2cc1C1CCN(S(=O)(=O)c2cc3c(cc2F)OCC3)CC1` [Compound 51, 6-(1-((6-fluoro-2,3-dihydrobenzofuran-5-yl)sulfonyl)piperidin-4-yl)-7-methyl-[1,2,4]triazolo[4,3-a]pyridine], under setting [1], the IC50 was more than 10000 nM.

For the molecule `Cc1c(S(=O)(=O)N2CCC(c3ccc4c(c3)OCO4)CC2)cnn1C` [Compound 356, 4-(benzo[d][1,3]dioxol-5-yl)-1-((1,5-dimethyl-1H-pyrazol-4-yl)sulfonyl)piperidine], the half-inhibitory concentration (IC50) under setting [1] is 306 nM.

For the molecule `O=S(=O)(c1cnn2ccccc12)N1CCC(c2cn3ncnc3cc2C(F)(F)F)CC1` [Compound 511, 6-(1-(pyrazolo[1,5-a]pyridin-3-ylsulfonyl)piperidin-4-yl)-7-(trifluoromethyl)-[1,2,4]triazolo[1,5-a]pyridine], the IC50 (vs EC80 acetylcholine) was found to be 102 nM.

On to `Cc1cc2nccn2nc1C1CCN(S(=O)(=O)c2cnc(C)n2C)CC1` [Compound 252, 6-(1-((1,2-dimethyl-1H-imidazol-5-yl)sulfonyl)piperidin-4-yl)-7-methylimidazo[1,2-b]pyridazine], for which the IC50 under setting [1] is 123 nM.
